Numbering of substitutions follows the chain as printed.
Experiments:
[1] = biological target: T1, FicD^H363A (Homo sapiens, UniProt Q9BVA6, H363A); experiment: MIDAS metabolite screen, FicD^H363A; type: binding; settings: cutoff Q < 0.05 and |Log2 corrected fold change| > 2, metabolites 5 µM
T1 construct: soluble ER luminal domain (residues 105 to 458) of wild-type human FicD and three mutants; 6xHis-Sumo (N, cleaved yes); made in house; host or cells: Rosetta(DE3) E. coli
T1 sequence (Q9BVA6 105-458 H363A): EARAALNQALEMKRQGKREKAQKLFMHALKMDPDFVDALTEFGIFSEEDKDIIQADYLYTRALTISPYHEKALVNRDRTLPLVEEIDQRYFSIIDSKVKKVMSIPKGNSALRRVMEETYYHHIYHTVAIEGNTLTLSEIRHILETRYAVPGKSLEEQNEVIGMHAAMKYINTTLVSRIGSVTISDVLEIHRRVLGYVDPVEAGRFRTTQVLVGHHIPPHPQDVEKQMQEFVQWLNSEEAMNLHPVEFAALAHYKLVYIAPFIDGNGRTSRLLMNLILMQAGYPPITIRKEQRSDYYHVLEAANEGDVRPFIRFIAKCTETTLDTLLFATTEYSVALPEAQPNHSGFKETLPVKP
Description: (§1) To identify small-molecule metabolite interactions with FicD, we applied an unbiased high-throughput screening approach known as MIDAS ([44]). Given the high concentrations of protein required for MIDAS screening, we purified the soluble ER luminal domain (residues 105 to 458) of wild-type human FicD and three mutants FicD^E234G, FicD^L258D, and FicD^H363A for screening (Fig. 1A). These mutants were selected based on their well-established biochemical features ([23], [24], [31]). All three are predicted to enhance detection of protein–metabolite interactions (PMIs) relative to FicD^WT through increased affinity for nucleotide substrates (FicD^E234G), improved solubility (FicD^L258D), and loss of catalytic turnover (FicD^H363A) (Fig. 1A). To decrease the potential for nonspecific small-molecule binding, we ensured the purity of our FicD proteins (SI Appendix, Fig. S1 A and B). As reported by other investigators ([24], [31]), we observe an increase in elution volume of the FicD^L258D mutant, consistent with its monomerization (SI Appendix, Fig. S1C).
(§2) Out of the 602 naturally occurring human metabolites in the MIDAS library, we applied a significance cutoff (q value < 0.05) to identify 12 PMIs with a Log2 (corrected fold change) of >2 and two PMIs with a Log2 (corrected fold change) <-2 in the FicD^WT screen (Fig. 1B and SI Appendix, Table S2). Hits were additionally triaged based on detection of multiple adducts of the metabolite in a single dataset (FPP and […] in Fig. 1B) and identification of the same metabolites across three or more of the FicD construct screens (Fig. 1C). Three chemical classes passed this initial triage: adenosine nucleotides, isoprenoid diphosphates, and thyroid hormone intermediates (Fig. 1 B and C and SI Appendix, Tables S2–S5).
(§3) 22°C. Induced cultures were then harvested by centrifugation at 8000G for 15 minutes at 4°C and […]
(§4) Bacterial pellets were resuspended in 30-50mL of 50mM Tris pH 7.4/150mM NaCl/10% glycerol with one Roche cOmplete EDTA-Free Protease inhibitor cocktail tablet (cat no. COEDTAF-RO).
(§5) Triton-X100 to a final concentration of 0.2%, Chicken-egg lysozyme to a final concentration of 0.4ug/mL, and 2-5uL of Millipore Benzonase Nuclease (cat no. 70664) were added to bacterial suspension prior to sonication at 40-50% amplitude for 1-3 minutes in pulses of 5 seconds on and 30 seconds off on ice with a Sonics VCX 750 Ultrasonicator. Bacterial lysate was then clarified by centrifugation at 30,000 x g for 30 minutes at 4°C.
Clarified lysate was rotated with Qiagen NiNTA agarose beads (cat no. 30210) for 1-2 hours at 4°C. […]

[2] = biological target: T2, FicD^L258D (Homo sapiens, UniProt Q9BVA6, L258D); experiment: MIDAS metabolite screen, FicD^L258D; type: binding; settings: cutoff Q < 0.05 and |Log2 corrected fold change| > 2, metabolites 5 µM
T2 construct: soluble ER luminal domain (residues 105 to 458) of wild-type human FicD and three mutants; 6xHis-Sumo (N, cleaved yes); made in house; host or cells: Rosetta(DE3) E. coli
T2 sequence (Q9BVA6 105-458 L258D): T1 sequence (Q9BVA6 105-458 H363A) with L154D, A259H
Description: as §1, §2, §3, §4, §5
Clarified lysate was rotated with Qiagen NiNTA agarose beads (cat no. 30210) for 1-2 hours at 4°C. The beads were then transferred to a 15mL conical vial, resuspended in 10-15mL wash buffer (50mM Tris pH 7.4/150mM NaCl/10% glycerol/0.2% Triton-X 100/10mM imidazole), and spun down at 1000G for 1 minute at 4°C, after which the supernatant was aspirated from the beads. This washing step was repeated 2-4 times to rinse bacterial lysate from the beads prior to on-column washing. The beads were then transferred to BioRad Econopac 20mL bed volume column (cat no.
7321010) and washed with 10-15mL of wash buffer (repeated at least three times), 10mL of ATP wash (50mM Tris pH 7.4/300mM KCl/10mM MgCl2/500uM ATP, repeated once), and finally with 10-15mL wash buffer without Triton-X 100 (repeated at least three times). Protein was eluted in 500μL-1mL elution buffer (50mM Tris pH 7.5/150mM NaCl/10% glycerol/0.5% CHAPS). […]

[3] = biological target: T3, FicD^WT (Homo sapiens, UniProt Q9BVA6); experiment: MIDAS equilibrium dialysis/mass spectrometry metabolite screen, FicD^WT; type: binding; settings: cutoff Q < 0.05 and |Log2 corrected fold change| > 2, metabolites 5 µM
T3 construct: soluble ER luminal domain (residues 105 to 458) of wild-type human FicD; 6xHis-Sumo (N, cleaved yes); made in house; host or cells: Rosetta(DE3) E. coli
T3 sequence (Q9BVA6 105-458): T1 sequence (Q9BVA6 105-458 H363A) with A259H

[4] = biological target: T4, FicD^E234G (Homo sapiens, UniProt Q9BVA6, E234G); experiment: MIDAS metabolite screen, FicD^E234G; type: binding; settings: cutoff Q < 0.05 and |Log2 corrected fold change| > 2, metabolites 5 µM
T4 construct: soluble ER luminal domain (residues 105 to 458) of wild-type human FicD and three mutants; 6xHis-Sumo (N, cleaved yes); made in house; host or cells: Rosetta(DE3) E. coli
T4 sequence (Q9BVA6 105-458 E234G): T1 sequence (Q9BVA6 105-458 H363A) with E130G, A259H

[5] = system: FicD; set-up: method as in PMID 40036289; settings: cited from earlier work

Structure (SMILES)	MIDAS protein-metabolite interaction (enrichment/depletion) [1]	MIDAS protein-metabolite interaction (enrichment/depletion) [2]	MIDAS protein-metabolite interaction (enrichment/depletion) [3]	MIDAS protein-metabolite interaction (enrichment/depletion) [4]	FicD inhibition reported in previous drug screens [5]
N[C@@H](Cc1ccc(Oc2ccc(O)c(I)c2)c(I)c1)C(=O)O [3,3’-Diiodothyronine]	significantly enriched	significantly enriched	significantly enriched	significantly enriched	
N[C@@H](Cc1cc(I)c(Oc2ccc(O)c(I)c2)c(I)c1)C(=O)O [liothyronine]					small-molecule inhibitor of FicD

Source: PMC12974487, “Inhibition of FicD-mediated AMPylation and deAMPylation by isoprenoid diphosphates” (Proceedings of the National Academy of Sciences of the …, 2026)
